“And” between values parts separate entries of the source, which are not always exact repeats. Identical values can stand only once.
How the values were obtained:
[1] = xn = mol fraction of the nth substance listed; conditions: 101 kPa

BrC(Br)Br
viscosity
Conditions | 298 K | 298.15 K | 303.15 K | 308.15 K | 313.15 K | 318 K
101 kPa | – | – | 1.843 mPa·s and 1.861 mPa·s | 1.729 mPa·s and 1.746 mPa·s | 1.623 mPa·s and 1.641 mPa·s | –
101.3 kPa | 1.873 mPa·s | 1.912 mPa·s | 1.79 mPa·s | 1.684 mPa·s | – | –
101.33 kPa | – | 1.912 mPa·s and 1.977 mPa·s | 1.79 mPa·s and 1.857 mPa·s | 1.684 mPa·s and 1.733 mPa·s | – | 1.476 mPa·s

BrC(Br)C(Br)Br
101 kPa
Conditions | viscosity [mPa·s]
298.08 K | 9.687
308.11 K | 7.313
313.11 K | 6.406

C=Cc1ccccc1
101 kPa
Conditions | viscosity
298.15 K | 1.07 mPa·s and 0.695 mPa·s
308.15 K | 0.618 mPa·s
313.15 K | 0.573 mPa·s

CC#N
Conditions | viscosity
293.15 K, 101.32 kPa | 0.3579 mPa·s
293.15 K, 101.33 kPa | 0.408 mPa·s and 0.383 mPa·s
297.92 K, 101 kPa | 0.3538 mPa·s
298.15 K, 100 kPa | 0.3479 mPa·s and 0.3462 mPa·s and 0.338 mPa·s
298.15 K, 101.3 kPa | 0.335 mPa·s and 0.346 mPa·s
298.15 K, 101.33 kPa | 0.39 mPa·s and 0.361 mPa·s and 0.345 mPa·s
301.67 K, 101 kPa | 0.3418 mPa·s
303 K, 100 kPa | 0.3485 mPa·s
303.15 K, 100 kPa | 0.3332 mPa·s and 0.3307 mPa·s
303.15 K, 101.3 kPa | 0.326 mPa·s
303.15 K, 101.33 kPa | 0.371 mPa·s and 0.333 mPa·s
303.61 K, 101 kPa | 0.3353 mPa·s
305.61 K, 101 kPa | 0.3294 mPa·s
308 K, 100 kPa | 0.3285 mPa·s
308 K, 101 kPa | 0.3205 mPa·s
308.15 K, 100 kPa | 0.3196 mPa·s and 0.3165 mPa·s
308.15 K, 101.3 kPa | 0.314 mPa·s and 0.306 mPa·s
308.15 K, 101.33 kPa | 0.319 mPa·s
308.76 K, 101 kPa | 0.3201 mPa·s
311.67 K, 101 kPa | 0.3112 mPa·s
313 K, 100 kPa | 0.3102 mPa·s
313.15 K, 100 kPa | 0.3071 mPa·s and 0.298 mPa·s
313.15 K, 101.3 kPa | 0.291 mPa·s
313.15 K, 101.32 kPa | 0.2974 mPa·s
313.15 K, 101.33 kPa | 0.337 mPa·s
318 K, 101 kPa | 0.2908 mPa·s
323.15 K, 100 kPa | 0.2849 mPa·s and 0.2624 mPa·s
323.15 K, 101.32 kPa | 0.2729 mPa·s
323.15 K, 101.33 kPa | 0.309 mPa·s

CC(=O)c1ccc(Cl)cc1
303.15 K
Conditions | viscosity [mPa·s]
100 kPa | 2.353
101 kPa | 2.353

CC(C)(C)N
viscosity
Conditions | 298 K | 298.15 K | 303 K | 303.15 K | 308 K | 308.15 K | 313.15 K
101 kPa | 0.434 mPa·s | 0.4394 mPa·s and 0.439 mPa·s | 0.403 mPa·s | 0.4363 mPa·s and 0.4443 mPa·s | 0.375 mPa·s | 0.4126 mPa·s and 0.4126 mPa·s | –
101.33 kPa | – | 0.4394 mPa·s | – | 0.4088 mPa·s | – | 0.3803 mPa·s | 0.3558 mPa·s

CC12CC3CC(C1)CC(C)(C3)C2
100 kPa
Conditions | viscosity
293.15 K | 3.779 mPa·s and 3.778 mPa·s
298.15 K | 3.371 mPa·s and 3.365 mPa·s
303.15 K | 3.027 mPa·s and 3.017 mPa·s
308.15 K | 2.747 mPa·s
313.15 K | 2.475 mPa·s
318.15 K | 2.262 mPa·s
323.15 K | 2.05 mPa·s

CC1CCCC(O)C1 (centres undefined)
Conditions | viscosity [mPa·s]
293.15 K, 101 kPa | 22.8

CCC(C)(C)OC
100 kPa
Conditions | viscosity [mPa·s]
293.15 K | 0.439
303.15 K | 0.415
313.15 K | 0.369
323.15 K | 0.335

CCCCCCCCO
viscosity
Conditions | 293.15 K | 298 K | 298.15 K | 303.15 K | 308 K | 308.15 K | 313 K | 313.15 K | 318.15 K | 323.15 K
100 kPa | 9.045 mPa·s and 9.2 mPa·s and 8.98 mPa·s | 7.614 mPa·s | 7.546 mPa·s and 7.67 mPa·s and 7.56 mPa·s | 6.337 mPa·s and 6.35 mPa·s | – | – | – | 4.564 mPa·s and 4.61 mPa·s and 4.585 mPa·s | – | 3.365 mPa·s and 3.38 mPa·s
101 kPa | 8.309 mPa·s and 9.185 mPa·s | – | 7.33 mPa·s and 7.3 mPa·s | – | 5.228 mPa·s | – | 4.464 mPa·s | 4.199 mPa·s and 4.691 mPa·s and 4.58 mPa·s | – | 3.464 mPa·s and 3.369 mPa·s
101.3 kPa | 9.273 mPa·s and 9.183 mPa·s | – | 7.598 mPa·s and 7.84 mPa·s | 6.102 mPa·s and 6.42 mPa·s | – | 5.403 mPa·s | – | 4.413 mPa·s and 4.661 mPa·s | 4.051 mPa·s and 3.701 mPa·s | 2.84 mPa·s
101.33 kPa | – | – | – | – | – | 5.352 mPa·s | – | – | – | 3.361 mPa·s and 3.361 mPa·s

CCn1cc[n+](C)c1.O=S(=O)([N-]S(=O)(=O)C(F)(F)F)C(F)(F)F
Conditions | viscosity
293.15 K, 100 kPa | 41.6 mPa·s and 39.2 mPa·s
297.55 K, 101 kPa | 36.3 mPa·s
298 K, 100 kPa | 29.67 mPa·s
298.15 K, 100 kPa | 33.9 mPa·s and 32.55 mPa·s
298.15 K, 101 kPa | 30.72 mPa·s and 32.3 mPa·s
298.15 K, 101.3 kPa | 32.42 mPa·s
303 K, 100 kPa | 24.82 mPa·s
303.15 K, 100 kPa | 27.68 mPa·s and 27.4 mPa·s
303.15 K, 101.3 kPa | 28.6 mPa·s
308 K, 100 kPa | 20.99 mPa·s
308.15 K, 101.3 kPa | 23.19 mPa·s
313 K, 100 kPa | 17.97 mPa·s
313.15 K, 100 kPa | 20.16 mPa·s and 19.1 mPa·s and 20.1 mPa·s
313.15 K, 101 kPa | 19.9 mPa·s and 19.26 mPa·s
313.15 K, 101.3 kPa | 19.94 mPa·s
318 K, 100 kPa | 15.57 mPa·s
318.15 K, 101.3 kPa | 17.37 mPa·s
323 K, 100 kPa | 13.28 mPa·s
323.15 K, 100 kPa | 15.34 mPa·s and 14.4 mPa·s and 15.3 mPa·s
323.15 K, 101.3 kPa | 15.34 mPa·s

NCCOCCO
101.33 kPa
Conditions | viscosity [mPa·s]
298.15 K | 26.66
313.15 K | 13.43
323.15 K | 9.155

O=S(=O)([N-]S(=O)(=O)C(F)(F)F)C(F)(F)F.OCCNCCO.[Li+]
101 kPa
Conditions | viscosity [mPa·s]
313.15 K | 1775
318.15 K | 1235
323.15 K | 895

O=S(=O)([N-]S(=O)(=O)C(F)(F)F)C(F)(F)F.OCCNCCO.[Li+] + O
viscosity [mPa·s], [1]
Conditions | 313.15 K | 318.15 K | 323.15 K
x1 = 0.03 | 2.3 | 1.83 | 1.52
x1 = 0.0601 | 4.57 | 3.78 | 3.28
x1 = 0.0999 | 13.16 | 10.06 | 7.95
x1 = 0.1922 | 61.51 | 40.94 | 28.08
x1 = 0.2941 | 156.6 | 98.53 | 65.24
x1 = 0.4028 | 299.2 | 187.7 | 123.7
x1 = 0.4989 | 451.2 | 285 | 192.2
x1 = 0.5999 | 629.9 | 408.1 | 281.1
x1 = 0.7015 | 835.5 | 557.5 | 393.6
x1 = 0.803 | 1078 | 736.7 | 530
x1 = 0.9011 | 1370 | 952.3 | 694.7

CC(C)(C)N + O=C1CCCCC1
[1], 298.15 K
Conditions | viscosity [mPa·s]
x2 = 0.0765 | 0.525
x2 = 0.157 | 0.607
x2 = 0.2421 | 0.702
x2 = 0.3319 | 0.787
x2 = 0.427 | 0.893
x2 = 0.5278 | 1.021
x2 = 0.6349 | 1.172
x2 = 0.7488 | 1.373
x2 = 0.8702 | 1.644

Reference: the CheMixHub viscosity set
